Where two headings read alike, the source gives them in different places.
Legend:
[1] = commonly used anionic surfactants, table values; cited from earlier work
[2] = Krafft temperature determination of dilute aqueous surfactant in a water bath (dissolution and frothing); format: physicochemical; conditions: 0.012% ceteth-10 phosphate, 0.017% dicetyl phosphate, 0.014% sodium cetostearyl sulfate in distilled water
Method: 0.0012 grams of ceteth-10 phosphate (Moravek Lot 671-144-000-A-20190821-JHO) was weighed into a 20 mL glass scintillation vial. 10.0113 grams of distilled water was added to the scintillation vial and the vial was tightly capped and placed in a water bath. […] The surfactant remained as waxy particles sedimented on the bottom of the vial. After equilibration at 53.0° C. for 435 minutes, ceteth-10 phosphate had dissolved and the sample frothed when shaken. The Krafft temperature of a 0.012% ceteth-10 phosphate aqueous solution was determined to be 53.0° C.
0.0019 grams of dicetyl phosphate (Sigma dihexadecyl phosphate lot STBH2863) was weighed into a 20 mL glass scintillation vial. 11.2262 grams of distilled water was added to the scintillation vial and the vial was tightly capped and placed in a water bath. […] After equilibration at 58.0° C. for 450 minutes, dicetyl phosphate had dissolved and the sample frothed when shaken. The Krafft temperature of a 0.017% dicetyl phosphate aqueous solution was determined to be 58.0° C.
0.0024 grams of sodium cetostearyl sulfate (BASF Lanette E Granules Lot 0021826181) was weighed into a 20 mL glass scintillation vial. 17.0763 grams of distilled water was added to the scintillation vial and the vial was tightly capped and placed in a water bath. […] The Krafft temperature of a 0.014% sodium cetostearyl sulfate aqueous solution was determined to be 41.0° C.

Krafft Temperature [2]	Krafft Temperature ([2]; listed as ceteth-10 phosphate)	Compound	Krafft Temperature [1]
–	–	CCCCCCCCCCCCOS(=O)(=O)O.N [Ammonium lauryl sulfate (ALS), Ammonium lauryl sulfate]	10 °C
–	–	CCCCCCCCCCCCCCCCOS(=O)(=O)[O-].[Na+] [Sodium cetyl sulfate]	45.0 °C
–	–	CCCCCCCCCCOS(=O)(=O)[O-].[Na+] [Sodium decyl sulfate]	8.0 °C
–	–	CCCCCCCCCCCCCCCCS(=O)(=O)[O-].[Na+] [Sodium hexadecyl sulfonate]	57.0 °C
–	–	CCCCCCCCCCCCOS(=O)(=O)[O-].[Na+] [Sodium lauryl sulfate (SLS), Sodium lauryl sulfate]	16.0 °C
–	–	CCCCCCCCCCCCCC(=O)[O-].[Na+] [Sodium myristate]	39 °C
–	–	CCCCCCCCCCCCCCOS(=O)(=O)[O-].[Na+] [Sodium myristyl sulfate]	30.0 °C
–	–	CCCCCCCCCCCCCCS(=O)(=O)[O-].[Na+] [Sodium myristyl sulfonate]	48.0 °C
–	–	CCCCCCCCCCCCCCCC(=O)[O-].[Na+] [Sodium palmitate]	69 °C
–	–	CCCCCCCCCCCCCCCCCC(=O)[O-].[Na+] [Sodium stearate]	71 °C
–	–	CCCCCCCCCCCCCCCCCCOS(=O)(=O)[O-].[Na+] [Sodium stearyl sulfate]	56.0 °C
–	–	Sodium laureth sulfate [Sodium laureth sulfate (SLES)]	<0 °C
53 °C	53 °C	ceteth-10 phosphate [Ceteth - 10 phosphate]	–

Reference: US20240261308A1, “TREATMENT OF SKIN CONDITIONS USING HIGH KRAFFT TEMPERATURE ANIONIC SURFACTANTS” (ARCUTIS BIOTHERAPEUTICS, INC., priority 2020, published 2024)
